In patent publication US5674876A, “.rho.-heteroatom-substituted phenols and uses thereof” (Research Development Foundation, priority 1995, dated 1997):

Tests used:
Format in all cases: cell-based
[1] = system: MDA MB 435 (Metastic Human Breast Cancer Cell Line); assay: Inhibition of DNA synthesis (3H-TdR uptake) / proliferation, MB-435; conditions: for inhibition at 0.1 µg/mL / inhibition at 1 µg/mL / inhibition at 5 µg/mL / inhibition at 10 µg/mL / inhibition at 20 µg/mL: Homo sapiens, MDA-MB-435, 48 h; for inhibition at 0.1 µg/mL: MB-435, 0.1 μg/mL; for inhibition at 1 µg/mL: MB-435, 1 μg/mL; for inhibition at 5 µg/mL: MB-435, 5 μg/mL
Experimental: (§1) Cells were cultured in the following media: 1) MDA MB 435 cells were cultured in Minimum Essential Media (MEM-HyClone, Logan, Utah) supplemented with 5% heat inactivated fetal bovine serum (HyClone), 2 mM glutamine (Sigma, St. Louis, Mo.), 1 mM sodium pyruvate (Sigma), 1X MEM Non-Essential Amino Acids (Sigma), 2X MEM Vitamins (Sigma), and 100 IU/mL penicillin/100 μg/mL streptomycin (HyClone); 2) MCF-7 McGuire cells were cultured in Minimum Essential Media (MEM-HyClone, Logan, Utah) supplemented with 5% heat inactivated fetal bovine serum (HyClone), 2 mM glutamine (Sigma, St. Louis, Mo.), and 100 IU/mL penicillin/100 μg/mL streptomycin (HyClone); 3) HL-60 cells were cultured in Iscoves Modified Dulbecco's Media (IMDM-HyClone, Logan, Utah) supplemented with 5% heat inactivated fetal bovine serum (HyClone), 2 mM glutamine (Sigma, St. Louis, Mo.), 1 mM sodium pyruvate (Sigma), 1X MEM Non-Essential Amino Acids (Sigma), 2X MEM Vitamins (Sigma), and 100 IU/mL penicillin/100 μg/mL streptomycin (HyClone); 2) MCF-7 McGuire cells were cultured in Minimum Essential Media (MEM-HyClone, Logan, Utah) supplemented with 5% heat inactivated fetal bovine serum (HyClone), 2 mM glutamine (Sigma, St. Louis, Mo.), and 100 IU/mL penicillin/100 μg/mL streptomycin (HyClone); 3) HL-60 cells were cultured in Iscoves Modified Dulbecco's Media (IMDM-HyClone, Logan, Utah) supplemented with 5% heat inactivated fetal bovine serum (HyClone), 2 mM glutamine (Sigma, St. Louis, Mo.), and 100 IU/mL penicillin/100 μg/mL streptomycin (HyClone).
(§2) All compounds were handled as if they were light sensitive. All compounds were initially dissolved in absolute ethanol and subsequently diluted to a final concentration of 0.5% ethanol with the appropriate medium.
(§3) For the bioassay, all cells were used at 2.5×10^5 /mL. Cells were treated with each of the compounds at concentrations of 20, 10, 5, 1, 0.1, and 0.01 μg/mL , and 200 μl of each treatment group were plated in quadruplicate in a 96 well culture plate (Corning, Corning N.Y.). Plates were done in duplicate, one plate to be used for viability testing and the other plate to examine ^3 H-TdR uptake (DNA synthesis).
(§4) Plates were cultured for 48 hours at 37° C., 5% CO2. Eight hours prior to the end of incubation, ^3 H-TdR was added to one of the duplicate plates and incubation continued for 8 hours. The cells were then harvested (trypsinization was required to harvest MDA MB 435 and MCF-7 McGuire). At the end of the incubation, the cells were removed from the wells (of the duplicate plate--no radioisotope added) and viability checked by the Trypan Blue Exclusion method. Percent viability and percent suppression of each treatment group were calculated.
(§5) With respect to the data shown in the Tables below, the data is arranged from greatest percent inhibition of DNA synthesis to lowest. […] "NT" refers to "Not Tested". The cells were cultured for 48 hours, pulsed 8 hours with tritiated thymidine, harvested and counted. MDA MB 435 is the abbreviation for the Metastic Human Breast Cancer Cell Line. MCF-7 McGuire is the abbreviation for the Estrogen Responsive Human Breast Cancer Cell Line and HL-60 is the Human Promyelocytic Leukemia Cell Line.

[2] = system: HL-60 (Human Promyelocytic Leukemia Cell Line); assay: Inhibition of DNA synthesis (3H-TdR uptake) / proliferation, HL-60; conditions: for inhibition at 0.1 µg/mL / inhibition at 1 µg/mL / inhibition at 5 µg/mL / inhibition at 10 µg/mL / inhibition at 20 µg/mL: Homo sapiens, 48 h; for inhibition at 0.1 µg/mL: HL-60, 0.1 μg/mL; for inhibition at 1 µg/mL: HL-60, 1 μg/mL; for inhibition at 5 µg/mL: HL-60, 5 μg/mL; for inhibition at 10 µg/mL: HL-60, 10 μg/mL
Experimental: as §1, §2, §3, §4, §5

[3] = system: MCF-7 McGuire (Estrogen Responsive Human Breast Cancer Cell Line); assay: Inhibition of DNA synthesis (3H-TdR uptake) / proliferation, MCF-7
Experimental: as §1, §2, §3, §4, §5

COc1c(C)cc2c(c1C)C(C)CN2C(=O)C(C)C (stereo not drawn) [Compound 13, N-Isobutyryl-5-methoxy-3,4,6-trimethylindoline]
inhibition at 0.1 µg/mL [1]: 4% | inhibition at 1 µg/mL [1]: -4% | inhibition at 5 µg/mL [1]: 8% | inhibition at 10 µg/mL ([1]; MB-435, 10 μg/mL): 17% | inhibition at 20 µg/mL ([1]; MB-435, 20 μg/mL): 45% | inhibition of proliferation (in words) ([1]; MB-435, 20 μg/mL): inhibited the proliferation | inhibition of proliferation (in words) ([2]; HL-60, 20 μg/mL): inhibited the proliferation | inhibition at 0.1 µg/mL [2]: 0% | inhibition at 1 µg/mL [2]: 10% | inhibition at 5 µg/mL [2]: 15% | inhibition at 10 µg/mL [2]: 27% | inhibition at 20 µg/mL ([2]; HL-60, 20 μg/mL): 53%

CC(=O)N1CC(C)(C)c2c1cc(C)c(O)c2C [Compound 16, N-Acetyl-5-hydroxy-3,3,4,6-tetramethylindoline]
inhibition at 0.1 µg/mL [1]: 0% | inhibition at 1 µg/mL [1]: 1% | inhibition at 5 µg/mL [1]: 9% | inhibition at 10 µg/mL ([1]; MB-435, 10 μg/mL): 18% | inhibition at 20 µg/mL ([1]; MB-435, 20 μg/mL): 31% | inhibition of proliferation (in words) ([1]; MB-435, 5-20 μg/mL): significantly inhibited the proliferation | inhibition of proliferation (in words) ([2]; HL-60, 5-20 μg/mL): significantly inhibited the proliferation | inhibition at 0.1 µg/mL [2]: 0% | inhibition at 1 µg/mL [2]: 0% | inhibition at 5 µg/mL [2]: 11% | inhibition at 10 µg/mL [2]: 11% | inhibition at 20 µg/mL ([2]; HL-60, 20 μg/mL): 15%

Cc1cc2c(c(C)c1O)C(C)(C)CN2C(=O)C(C)(C)C [Compound 20, N-Pivaloyl-5-hydroxy-3,3,4,6-tetramethylindoline]
inhibition at 0.1 µg/mL [1]: -1% | inhibition at 1 µg/mL [1]: -5% | inhibition at 5 µg/mL [1]: -1% | inhibition at 10 µg/mL ([1]; MB-435, 10 μg/mL): -13% | inhibition at 20 µg/mL ([1]; MB-435, 20 μg/mL): 31% | inhibition of proliferation (in words) ([1]; MB-435, 20 μg/mL): inhibited the proliferation | inhibition of proliferation (in words) ([2]; HL-60, 20 μg/mL): inhibited the proliferation | inhibition at 0.1 µg/mL [2]: 2% | inhibition at 1 µg/mL [2]: 6% | inhibition at 5 µg/mL [2]: 18% | inhibition at 10 µg/mL [2]: 33% | inhibition at 20 µg/mL ([2]; HL-60, 20 μg/mL): 63%

CC(C)(C)c1cc2c(c(C(C)(C)C)c1O)CC(=O)O2 [Compound 24, 4,6-Di-tert-butyl-2,3-dihydro-5-hydroxy-2(3H)-benzofuranone]
inhibition at 0.1 µg/mL [1]: 13% | inhibition at 1 µg/mL [1]: 5% | inhibition at 5 µg/mL [1]: 29% | inhibition at 10 µg/mL ([1]; MB-435, 10 μg/mL): 85% | inhibition at 20 µg/mL ([1]; MB-435, 20 μg/mL): 97% | inhibition of proliferation (in words) ([1]; MB-435, 10 μg/mL): significantly inhibited the proliferation | inhibition at 0.1 µg/mL ([3]; Homo sapiens, MCF7, MCF-7, 0.1 μg/mL, 48 h): 0% | inhibition at 1 µg/mL ([3]; Homo sapiens, MCF7, MCF-7, 1 μg/mL, 48 h): 4% | inhibition at 5 µg/mL ([3]; Homo sapiens, MCF7, MCF-7, 5 μg/mL, 48 h): 25% | inhibition at 10 µg/mL ([3]; Homo sapiens, MCF7, MCF-7, 10 μg/mL, 48 h): 85% | inhibition at 20 µg/mL ([3]; Homo sapiens, MCF7, MCF-7, 20 μg/mL, 48 h): 97% | inhibition of proliferation (in words) ([3]; MCF-7, 10 μg/mL): significantly inhibited the proliferation | inhibition of proliferation (in words) ([2]; HL-60, 20 μg/mL): significantly inhibited the proliferation | inhibition at 0.1 µg/mL [2]: 7% | inhibition at 1 µg/mL [2]: 0% | inhibition at 5 µg/mL [2]: 5% | inhibition at 10 µg/mL [2]: 30% | inhibition at 20 µg/mL ([2]; HL-60, 20 μg/mL): 47%
